Measured values: patent US20030077576A1, “Use of monoclonal antibodies and functional assays for prediction of risk of opportunistic infection” (priority 2001, published 2003)

Key:
Type in all cases: cell-based, human
monocyte VLA-5 (CD49e) = settings: for log fluorescence intensity for VLA-5 (CD49e stained with mAb SAM-1) in the CD14+ (monocyte) population, FN120: 2 μM FN120 for 2 h in the presence of the protease inhibitor; for log fluorescence intensity for VLA-5 (CD49e stained with mAb SAM-1) in the CD14+ (monocyte) population, FN120 / log fluorescence intensity for VLA-5 (CD49e stained with mAb SAM-1) in the CD14+ (monocyte) population, No Rx: 0.2 mM PMSF, 2 mM CdCl2, 40 μM bestatin, 10 μM 1,10 phenanthroline, 0.1 mM EGTA, mean ± SEM, three donors; for log fluorescence intensity for VLA-5 (CD49e stained with mAb SAM-1) in the CD14+ (monocyte) population, No Rx: protease inhibitor alone, no FN120, 2 h
Procedure: Briefly, heparinized blood was distributed in 0.1-ml aliquots into polypropylene tubes for incubation with saturating concentrations of primary or secondary antibodies at 4° C. for 30 min. Incubations were separated by two washes with ice-cold Dulbecco's PBS (Gibco Laboratories, Grand Island, N.Y.). FITC-conjugated sheep anti-mouse Ig was used at a dilution of 1:120. PE-conjugated anti-CD14 (clone 116, Beckman Coulter), added after the secondary antibody, was used according to the manufacturer's directions. After leukocytes were stained and washed, red cells were lysed with FACS Lysing Solution (Becton Dickinson). Leukocytes were washed again, fixed in 1% paraformaldehyde, and analyzed by flow cytometry the day of the experiment. […] Total white blood cell (Coulter Counter, Coulter Electronics, Hialeah, Fla.) and differential counts were measured in aliquots of the same blood samples used for immunofluorescence studies. Tests of control blood donors were randomly interspersed among patient samples.
Flow cytometry was performed on an Epics Profile 1 with three fluorescence channels (Coulter Cytometry, Hialeah, Fla.) that has an argon laser tuned to 488 nm. Daily alignment and calibration of the instrument was performed with DNA-check and Standard-Brite fluorescent beads (Coulter). Green (FL1), orange (FL2), and red (FL3) fluorescence signals are measured on a four-decade logarithmic scale. Linearity of log fluorescence intensity was checked with Immuno-Brite fluorescent beads. Appropriate compensations for spectral overlap between the three channels is carried out prior to calculating data. The mean intensity of fluorescence, measured on a 4 decade logarithmic scale, was converted to a linear scale, using a 256 channel histogram, to give a mean channel number, also known as the mean channel fluorescence (MCF). This was used to estimate the average fluorescence emission of cells reactive with specific monoclonal antibodies. Cell surface display of specific mAbs were precisely delineated when necessary by means of quantitative flow cytometry, using the Quantum Simply Cellular Microbeads Kit from Sigma BioSciences, St. Louis, Mo. This kit contained four bead populations that bind graduated quantities of antibodies per bead. […] By interpolation, this standard curve was used to accurately estimate the quantity of antibody bound to other cellular targets. Leukocytes were initially selected for fluorescence analysis by a combination of right-angle and low angle forward light scatter. Two color fluorescence, with PE conjugated anti-CD14 as a qualifier was used specifically to identify monocytes, and anti-CD3 to identify T lymphocytes. Other lymphoid elements were identified, as required, by using appropriate direct antibody conjugates. At least 2500 monocytes were counted in each sample. Fluorescence measurements from isotype controls were subtracted from data obtained with all reported antibodies.
To determine how fragments of fibronectin might affect VLA-5 expression, the effect of adding purified 120 kD and 40 kD fragments of fibronectin to heparin-anticoagulated whole blood from normal donors was measured. The 120 kD fragment has an RGD motif and binds to VLA-5 on cells.

U937 monocytoid cells = assay: FN120 treatment of U937 monocytoid cells: proteinase-3 expression and VLA-5 shedding; settings: U937 cells treated with FN120
From the text: To further investigate how FN120 causes VLA-5 shedding, U937 monocytoid cells were studied. These display greater quantities of VLA-5 than blood monocytes. They also display the serine protease, proteinase-3, when activated (Rao et al., 1996). U937 cells were washed repeatedly, to remove exogenous fibronectin and serum proteases, and resuspended in serum-free medium for treatment with FN120. […] Treating the cells with polyclonal anti-proteinase-3 or serine proteinase inhibitors such as alpha-antitrypsin blocked proteinase-3 activity. Blocking proteinase-3 activity with either agent prevented hydrolysis and release of VLA-5 molecules that are otherwise shed when U937 cells are incubated with FN120 as shown in FIG. 11.

CD14+ monocytes = assay: Monocyte migration into collagenous matrices with or without native fibronectin; settings: 4 hrs at 37° C., pads impregnated with full-length 220 kD native fibronectin
Procedure: Briefly, monocytes were incubated with collagenous matrices, half of which had been impregnated with full-length 220 kD native fibronectin. After 4 hrs contact at 37° C., unbound MNLs were washed away. The pads were dissolved with collagenase to recover and count the cells that had migrated into the matrix (Birdsall et al., 1997).

| Molecule | log fluorescence intensity for VLA-5 (CD49e stained with mAb SAM-1) in the CD14+ (monocyte) population, FN120 (monocyte VLA-5 (CD49e)) | log fluorescence intensity for VLA-5 (CD49e stained with mAb SAM-1) in the CD14+ (monocyte) population, No Rx (monocyte VLA-5 (CD49e)) | also measured |
| --- | --- | --- | --- |
| O=S(=O)(F)Cc1ccccc1 [PMSF, phenylmethylsulfonylfluoride] | 5.8 ± 0.7 | 5.4 ± 0.5 |  |
| alpha-antitrypsin: serine proteinase inhibitor |  |  | proteinase-3 activity (U937 monocytoid cells): blocked |
| c1cnc2c(c1)ccc1cccnc12 [1,10 phenanthroline] | 3.1 ± 0.6 | 4.9 ± 0.6 |  |
| O=C(O)CN(CCOCCOCCN(CC(=O)O)CC(=O)O)CC(=O)O [EGTA] | 2.8 ± 0.6 | 5.1 ± 0.3 |  |
| [Cl][Cd][Cl] [CdCl2] | 2.2 ± 0.3 | 4.7 ± 0.5 |  |
| CC(C)C[C@H](NC(=O)[C@@H](O)[C@H](N)Cc1ccccc1)C(=O)O [bestatin] | 2.4 ± 0.5 | 4.9 ± 0.3 |  |
| O=CC[C@@H](O)[C@H](O)[C@H](O)CO [2-deoxyglucose] |  |  | loss of VLA-5 with 120 kD fibronectin fragments when cellular metabolism is inhibited (monocyte VLA-5 (CD49e); 2-deoxyglucose and sodium azide together, with 120 kD fibronectin fragments): failed to occur |
| fibronectin |  |  | CD14+ monocytes accumulated in fibronectin-containing pads versus plain collagen pads (CD14+ monocytes): three times as many |
